Measured values as given in PubChem BioAssay AID624129 (Sanford-Burnham Center for Chemical Genomics, 2012).
Activity calls are given as the source filed them. The rule behind the calls is not given here.

Key:
Assay in all cases: potency against CXCR6 with APJ panel – cell-based, beta-arrestin, DiscoveRx, uHTS hits, dose response (AID 624129)
[1] = biological target: Beta-galactosidase (Escherichia coli) (UniProt Q8VNN2); details: CXCR6 beta-arrestin (DiscoveRx) antagonist cell assay, b-galactosidase
Beta-galactosidase (Escherichia coli), sequence (Q8VNN2 whole entry, looked up): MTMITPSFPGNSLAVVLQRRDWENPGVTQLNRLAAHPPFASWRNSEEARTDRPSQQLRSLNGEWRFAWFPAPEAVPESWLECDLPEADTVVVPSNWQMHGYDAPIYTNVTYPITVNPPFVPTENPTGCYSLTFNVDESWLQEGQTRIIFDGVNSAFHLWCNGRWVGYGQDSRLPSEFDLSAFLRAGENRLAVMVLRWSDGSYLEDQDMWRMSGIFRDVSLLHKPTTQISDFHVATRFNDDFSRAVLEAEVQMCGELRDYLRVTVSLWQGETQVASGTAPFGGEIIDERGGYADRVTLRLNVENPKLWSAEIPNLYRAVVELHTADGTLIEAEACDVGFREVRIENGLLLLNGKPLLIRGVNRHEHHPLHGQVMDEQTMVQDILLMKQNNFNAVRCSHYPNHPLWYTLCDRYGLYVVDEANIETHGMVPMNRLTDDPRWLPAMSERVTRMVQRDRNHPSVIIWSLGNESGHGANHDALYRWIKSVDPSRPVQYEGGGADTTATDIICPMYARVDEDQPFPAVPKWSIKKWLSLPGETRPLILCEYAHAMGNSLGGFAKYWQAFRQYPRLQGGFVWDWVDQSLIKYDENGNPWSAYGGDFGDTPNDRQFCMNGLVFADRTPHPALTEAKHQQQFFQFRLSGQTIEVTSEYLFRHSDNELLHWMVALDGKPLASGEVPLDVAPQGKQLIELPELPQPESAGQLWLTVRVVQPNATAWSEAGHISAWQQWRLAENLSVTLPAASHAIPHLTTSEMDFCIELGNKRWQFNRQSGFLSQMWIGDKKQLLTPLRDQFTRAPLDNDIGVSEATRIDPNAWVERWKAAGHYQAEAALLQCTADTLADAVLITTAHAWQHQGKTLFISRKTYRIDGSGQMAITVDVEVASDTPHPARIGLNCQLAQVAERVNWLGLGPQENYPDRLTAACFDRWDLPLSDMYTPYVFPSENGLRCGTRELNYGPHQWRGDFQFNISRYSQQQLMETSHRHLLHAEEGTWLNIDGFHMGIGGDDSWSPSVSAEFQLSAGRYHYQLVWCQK

[2] = biological target: C-C chemokine receptor type 6 (Homo sapiens) (UniProt P51684); details: CXCR6 beta-arrestin (DiscoveRx) antagonist cell assay
[3] = biological target: Apelin receptor (Homo sapiens) (UniProt P35414); details: CXCR6 beta-arrestin (DiscoveRx) antagonist cell assay, APJ
[4] = biological target: C-X-C chemokine receptor type 6 (Homo sapiens) (UniProt O00574); details: CXCR6 beta-arrestin (DiscoveRx) antagonist cell assay; for inhibition: CXCR6, run 1, dose range 2, at 80 µM (top of the series)
C-X-C chemokine receptor type 6 (Homo sapiens), sequence (O00574 whole entry, looked up): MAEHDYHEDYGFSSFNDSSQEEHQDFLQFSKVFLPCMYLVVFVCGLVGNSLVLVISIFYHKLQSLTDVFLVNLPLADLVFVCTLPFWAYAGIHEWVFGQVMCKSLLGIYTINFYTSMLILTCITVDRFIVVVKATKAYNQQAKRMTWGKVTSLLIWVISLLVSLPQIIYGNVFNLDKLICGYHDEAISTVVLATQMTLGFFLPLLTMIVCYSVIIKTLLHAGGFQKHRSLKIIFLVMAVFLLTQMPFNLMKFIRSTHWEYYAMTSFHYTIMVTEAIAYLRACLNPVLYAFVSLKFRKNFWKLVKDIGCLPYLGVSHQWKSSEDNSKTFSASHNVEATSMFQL

[5] = dose range 1, mean IC50 across replicates
[6] = CCR6, dose range 1, mean IC50 across replicates
[7] = CXCR6, dose range 1, mean IC50 across replicates

| Compound | IC50 ([1]; dose range 1) | IC50 [1, 5] [µM] | IC50 ([2]; CCR6, dose range 1) [µM] | IC50 [2, 6] [µM] | IC50 ([2]; CCR6, run 2, dose range 1) [µM] | IC50 ([3]; dose range 1) [µM] | IC50 [3, 5] [µM] | IC50 ([3]; run 2, dose range 1) [µM] | IC50 ([3]; run 3, dose range 1) [µM] | IC50 ([4]; CXCR6, dose range 1) | IC50 [4, 7] [µM] | inhibition [4] [%] | IC50 ([4]; CXCR6, run 2, dose range 1) [µM] | IC50 ([4]; CXCR6, run 1, dose range 2) [µM] | IC50 ([4]; CXCR6, run 2, dose range 2) [µM] |
| --- | --- | --- | --- | --- | --- | --- | --- | --- | --- | --- | --- | --- | --- | --- | --- |
| Cc1nnc(Sc2cc(NCCCO)c([N+](=O)[O-])c3nonc23)s1 | > 80 µM (inactive) | > 80 | 8.94 | 8.16 | 7.38 | 12.9 | 11.6 | 11.3 | 10.6 | 7.25 µM | 7.84 |  | 9.54 | 8.37 | 6.2 |
| S=C(N/N=C/c1ccccc1)N1CCOCC1 | > 80 µM (inactive) | > 80 | 5.59 | 6.34 | 7.09 | 6.85 | 7 | 7.06 | 7.08 | 7.03 µM | 6.19 |  | 8.46 | 4.47 | 4.81 |
| O=Cc1s/c(=N\S(=O)(=O)c2ccccc2)n(CCCCl)c1Cl | 15.9 µM | 15.9 | 2.79 | 3.11 | 3.43 | 6.78 | 6.28 | 5.42 | 6.63 | 4.95 µM | 4.83 |  | 4.89 | 5.13 | 4.35 |
| O=[N+]([O-])c1ccc(S(=O)Cc2ccccc2)c([N+](=O)[O-])c1 (stereo not given) | > 80 µM (inactive) | > 80 |  | > 80 | > 80 |  | > 80 | > 80 | > 80 | > 80 µM (inactive) | > 80 | -36.3 | > 80 |  |  |
| C=C1C(=O)C23C(O)C1CCC2C12CCCC(C)(COC(C)=O)C1C(O)C3(O)OC2 (stereo not given) | > 80 µM (inactive) | > 80 | 5.19 | 5.59 | 6 | 9 | 8.77 | 7.67 | 9.63 | 6.64 µM | 6.29 |  | 6.24 | 6.49 | 5.8 |
| COC(CNC(=O)c1cc(C(=O)c2c(-c3c(Cl)cccc3Cl)noc2C)c[nH]1)OC | > 80 µM (inactive) | > 80 | 16.9 | 24.1 | 31.4 | 5.2 | 9.29 | 10.7 | 12 | inactive | 15.7 | 80.7 | 18.6 |  |  |
| CCCCCCN1C=C/C(=C\C=C(C#N)C#N)c2ccccc21 | > 80 µM (inactive) | > 80 | 23.4 | 19.9 | 16.3 | 26.9 | 35.4 | 52.3 | 27.1 | inactive | 42.5 | 158 | 43.9 |  |  |
| O=[N+]([O-])c1cc(Cc2ccccc2)cc(C=Nc2ccc(N3CCOCC3)cc2)c1O | inactive | 64.7 |  | 37.4 | 37.4 | 15.7 | 28.9 | 33.6 | 37.4 | inactive | 14.5 | 93.2 | 13.1 |  |  |
| O=C(Nc1ccccc1Cl)/C(Cl)=C(\Cl)S(=O)c1ccccc1 (stereo not given) | > 80 µM (inactive) | > 80 | 8.58 | 8.32 | 8.05 | 12.7 | 11.7 | 11.9 | 10.5 | 9.69 µM | 9.93 |  | 10.4 | 9.44 | 10.2 |

Next, values leading:

| IC50 ([1]; dose range 1) | IC50 [1, 5] [µM] | IC50 ([2]; CCR6, dose range 1) [µM] | IC50 [2, 6] [µM] | IC50 ([2]; CCR6, run 2, dose range 1) [µM] | IC50 ([3]; dose range 1) [µM] | IC50 [3, 5] [µM] | IC50 ([3]; run 2, dose range 1) [µM] | IC50 ([3]; run 3, dose range 1) [µM] | IC50 ([4]; CXCR6, dose range 1) | IC50 [4, 7] [µM] | inhibition [4] [%] | IC50 ([4]; CXCR6, run 2, dose range 1) [µM] | IC50 ([4]; CXCR6, run 1, dose range 2) [µM] | IC50 ([4]; CXCR6, run 2, dose range 2) [µM] | Compound |
| --- | --- | --- | --- | --- | --- | --- | --- | --- | --- | --- | --- | --- | --- | --- | --- |
| > 80 µM (inactive) | > 80 | 16.2 | 21.7 | 27.1 | 16.4 | 29.4 | 42.5 | > 80 | inactive | 22.2 | 116 | > 80 |  |  | Cn1c(=O)c([N+](=O)[O-])c(Cl)c2ccccc21 |
| > 80 µM (inactive) | > 80 | 10.8 | 12.6 | 14.3 | 13.6 | 13.7 | 14.1 | 13.3 | inactive | 14.1 |  | 14 | 8.52 | 13.3 | Fc1ccc(NC(=S)Nc2nccs2)cc1 |
| > 80 µM (inactive) | > 80 | 2.8 | 3.45 | 4.1 | 4.5 | 4.96 | 5.92 | 4.47 | 4.12 µM | 4.09 |  | 4.68 | 3.66 | 3.91 | COc1ccc(-c2csc(Cc3nc(O)cs3)n2)cc1 |
| > 80 µM (inactive) | > 80 | 6.82 | 7.6 | 8.37 | 8.02 | 8.47 | 8.75 | 8.64 | 8.97 µM | 7.17 |  | 7.93 | 5.61 | 6.18 | CC(Oc1cccc(Cl)c1)C(=O)Nc1nc(-c2ccccn2)cs1 (stereo not given) |
| > 80 µM (inactive) | > 80 | 5.29 | 6.44 | 7.59 | 3.72 | 18.7 | 12.7 | 39.6 | 6.47 µM | 4.36 | 49.5 | 2.24 |  |  | Oc1c(I)cc(Cl)c2cccnc12 |
| > 80 µM (inactive) | > 80 | 3.95 | 5.65 | 7.36 | 5.07 | 4.98 | > 80 | 4.89 |  | 4.43 |  | 6.87 | 2.77 | 3.64 | Oc1cccc2ccc(/C=C/c3cccs3)nc12 |
| > 80 µM (inactive) | > 80 | 23 | 21.6 | 20.2 | 34.9 | 33.3 | 32.9 | 32 | inactive | 28.2 | 97.7 | 27.7 |  |  | Cc1[nH][nH]c(=O)c1C(c1c(C)[nH][nH]c1=O)c1cn(Cc2ccc(F)cc2)c2ccccc12 |
| > 80 µM (inactive) | > 80 | 4.94 | 5.41 | 5.87 | 5.26 | 5.92 | 6.22 | 6.29 | 4.91 µM | 5.07 |  | 5.82 | 4.36 | 5.2 | Cc1ccc2c(C)ccc(O)c2n1 |
| > 80 µM (inactive) | > 80 | 2.42 | 3.22 | 4.01 | 2.79 | 7.52 | 15.3 | 4.43 | 4.85 µM | 4.74 |  | 6.67 | 2.69 | > 79 | C/C(=N\NC(=O)c1cc(-c2cccs2)nc2ccccc12)c1ccccn1 |
| > 80 µM (inactive) | > 80 |  | > 80 | > 80 |  | > 80 | > 80 | > 80 | > 80 µM (inactive) | > 80 | -9.6 | > 80 |  |  | Cc1cccc(C)c1NC(=O)c1nc(S(=O)(=O)Cc2ccccc2)ncc1Cl |
| > 80 µM (inactive) | > 80 |  | 9.06 | 9.06 | 22.8 | 14.7 | 12.2 | 9.18 | 7.44 µM | 6.98 | 28.7 | 6.53 |  |  | Cc1ccc(-c2oc3ccccc3c(=O)c2O)cc1 |
| 29.8 µM | 29.8 | 5.52 | 5.34 | 5.16 | 9.71 | 8.18 | 7.17 | 7.67 | 6.36 µM | 6.45 |  | 6.05 | 7.34 | 6.06 | CC(=O)OCCNc1cc(Sc2nc3ccccc3[nH]2)c2nonc2c1[N+](=O)[O-] |
| > 80 µM (inactive) | > 80 | 15.1 | 12.9 | 10.7 |  | > 80 | > 80 | > 80 | inactive | 18.7 | 58.6 | 15.8 |  |  | C=C1CC2(OC1=O)c1ccccc1CCc1ccccc12 |
